Columns and labels:
[1] = target: T1, Cu^2+-induced Aβ1-42 aggregation (Homo sapiens, UniProt P05067); test: Cu^2+-induced Aβ1-42 aggregation, thioflavin T fluorometric detection; type: biochemical; conditions: ThT, compound stock 150 μM; for Disaggregation of Cu^2+-induced Aβ1-42 aggregation: Figure 4A; for Inhibition of Cu^2+-induced Aβ1-42 aggregation: Figure 4B
T1 construct: Aβ1-42 (Sigma-Aldrich A9810, 20 μM) was dissolved in HEPES buffer; purchased Sigma-Aldrich A9810
Protocol: To further detect the ability of compounds 6b, CQ and MT to disaggregate or inhibit the Cu^2+-induced Aβ1-42 aggregation, we conducted thioflavin T fluorometric detection ([Hu et al., 2019]).
Detection of the compounds for disaggregated and inhibitory effects on Cu^2+ induced Aβ1-42 aggregation. Aβ1-42 (Sigma-Aldrich A9810, 20 μM) was dissolved in HEPES buffer (pH = 6.6, containing 1% ammonium hydroxide). 10 μL of Aβ1-42 was previously incubated with or without Cu^2+ at 37°C for 3 days to pre-fibrillation. 10 μL of 6b, CQ, and MT (150 μM, in DMSO) were incubated before or after the pre-fibrillation of Aβ1-42 at 37°C for 1 day. After incubation, 170 μL of thioflavin T (5 μM, in 50 mM glycine-NaOH buffer) was added to mix well. After incubation for 5 min, the Aβ1-42 aggregation was detected by Microplate Reader (HITACHI, F-4700) with excitation/emission at 450/485 nm.

Aβ1–42 = target: T2, Aβ1–42 (Homo sapiens, UniProt P05067); test: Inhibition of self-mediated Aβ1–42 aggregation, thioflavin T fluorescence assay; type: biochemical; conditions: ThT assay, compounds 20 μM, mean of n = 3 ± SD
T2 construct: Aβ1−42 (Sigma-Aldrich) was dissolved in NH4OH (1% v/v) to get a stock solution; purchased Sigma-Aldrich

[2] = Parallel artificial membrane permeability assay for the blood-brain barrier (PAMPA-BBB); conditions: for Papp / P e: PAMPA; for pred (predicted BBB permeation): classified from PAMPA-BBB Pe; for P e: can cross the blood-brain barrier
in vitro = conditions: PAMPA
[3] = Oxygen radical absorbance capacity (ORAC-FL) assay; conditions: compounds 5 µM, mean of n = 3 ± SD
Protocol: The solution of 2,2′-azobis- (amidinopropane) dihydrochloride (AAPH) was prepared to a final concentration of 40 mM. The mixture of the tested compounds (20 µL) and FL (120 μL; 70 nM) was pre-incubated for 10 min at 37°C, 60 µL of the AAPH solution was added. The fluorescence was recorded every minute for 120 min (excitation, 485 nm; emission, 520 nm). The antioxidant curves (fluorescence versus time) were normalized to the curve of the blank.
Where f0 is the initial fluorescence reading at 0 min and fi is the fluorescence reading at time i. The net AUC was calculated by the expression: AUCsample—AUCblank. Regression equations between net AUC and Trolox concentration were calculated. ORAC-FL value of the tested compound expressed as Trolox equivalents.

BV2 = test: Cytotoxicity assay on BV2 cells; type: cell-based; conditions: BV2, 20 μM
Protocol: (§1) To further investigate the bioactivity of the compounds, cytotoxicity was evaluated on SH-SY5Y and BV2 cell lines (Figures 2A, B).
(§2) FIGURE 2 Cytotoxicity assay of 6b and 6c on SH-SY5Y (A) and BV2 (B). Protective effect of 6b and 6c against H2O2 induced SH-SY5Y oxidative stress (C).

SH-SY5Y [4] = test: Cytotoxicity assay on SH-SY5Y cells; type: cell-based
Protocol: as §1, §2

SH-SY5Y [5] = test: Hydrogen peroxide induced oxidative stress (ROS, DCFH-DA probe) in SH-SY5Y cells; type: cell-based; conditions: SH-SY5Y treated with 400 μM hydrogen peroxide for 12 h
Excerpt: as §2
The effect of 6b and 6c on the oxidative stress of SH-SY5H cells induced by hydrogen peroxide was investigated using DCFH-DA as the fluorescent probe ([Xu et al., 2021]).

[6] = Metal-chelating study by UV spectrophotometry; type: physicochemical; conditions: for Metal-chelating property: 50 µM compound with Cu^2+, Zn^2+, Fe^2+ or Fe^3+ (50 µM), HEPES pH 7.4, UV-vis; for Inflection point, concentration ratio of Cu^2+ to compound: 50 µM compound, 0–100 µM copper ion, inflection point method
Protocol: To further evaluate multi-target anti-AD potential, the metal-chelating properties of 6b and 6c were determined by UV spectrophotometry ([Geng et al., 2012]; [Lu et al., 2013]; [Hu et al., 2019]). […] While co-incubated with Fe^3+ or Fe^2+, the intensity at 255 nm was in different degrees decreased. The same result occurred for 6c. […] Next, the chelation ratios of 6b and 6c to Cu^2+ were measured and calculated using the inflection point method (Figures 3B, D). The inflection point appears when the concentration ratio of compound Cu^2+ to 6b or 6c is 0.5, so it can be inferred that the chelation ratio of compound 6b and 6c to Cu^2+ is 2:1.
6b and 6c (50 µM) were incubated with CuSO4, FeSO4, FeCl3, or ZnCl2 (50 µM) in buffer (20 mM HEPES, 150 mM NaCl, pH 7.4) for 30 min, and the absorption spectras were recorded at room temperature. For the stoichiometry of the compound–Cu^2+ complex, a fixed amount of 6b and 6c (50 µM) was mixed with growing amounts of copper ion (0–100 µM), and the difference UV−vis spectra were examined to investigate the ratio of ligand/metal in the complex.

[7] = 13 commercial drugs for validation, literature value; ref Bibl a; cited from earlier work

T1 sequence (P05067 672-713 limits assumed): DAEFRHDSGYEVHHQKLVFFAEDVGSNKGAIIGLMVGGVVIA
T2 sequence (P05067 672-713 limits assumed): as above

SMILES	inhibition at 20 µM (Aβ1–42) [%]	Papp [2] [×10⁻⁶ cm/s]	pred (predicted BBB permeation) [2]	P e [2]	ORAC [3] [Trolox equivalents]	also measured
Oc1c(I)cc(Cl)c2cccnc12 [CQ, clioquinol, reference compound]	30.8 ± 1.08	–	–	–	–	Disaggregation of Cu^2+-induced Aβ1-42 aggregation [1]: significantly disaggregated
CN(C)CCCN1c2ccccc2Sc2ccc(Cl)cc21 [Chlorpromazinne, chlorpromazine, reference compound]	–	6.63 ± 0.81	CNS+ (Compounds of high BBB permeation (CNS+) Pe>4.7)	–	–	–
Oc1cccc2ccc(CNCCc3c[nH]c4ccccc34)nc12 [Compound 3a, 2-(((2-(1H-indol-3-yl)ethyl)amino)methyl)quinolin-8-ol]	27.1 ± 5.01	–	CNS+ (Compounds of high BBB permeation (CNS+) Pe>4.7)	> 4.7	3.50 ± 0.12	Papp (in vitro): 8.08 ± 0.56 ×10⁻⁶ cm/s
COc1ccc2[nH]cc(CCNCc3ccc4cccc(O)c4n3)c2c1 [Compound 3b, 2-(((2-(5-methoxy-1H-indol-3-yl)ethyl)amino)methyl)quinolin-8-ol]	18.2 ± 2.02	–	CNS+ (Compounds of high BBB permeation (CNS+) Pe>4.7)	> 4.7	3.25 ± 0.10	Papp (in vitro): 6.61 ± 0.22 ×10⁻⁶ cm/s
Oc1ccc2[nH]cc(CCNCc3ccc4cccc(O)c4n3)c2c1 [Compound 3c, 2-(((2-(5-hydroxy-1H-indol-3-yl)ethyl)amino)methyl)quinolin-8-ol]	40.2 ± 2.89	–	CNS+ (Compounds of high BBB permeation (CNS+) Pe>4.7)	> 4.7	4.47 ± 0.18	Papp (in vitro): 4.81 ± 0.87 ×10⁻⁶ cm/s
Oc1cccc2ccc(CNCc3c[nH]c4ccccc34)nc12 [Compound 3d, 2-((((1H-indol-3-yl)methyl)amino)methyl)quinolin-8-ol]	20.5 ± 4.72	5.09 ± 1.32	CNS+ (Compounds of high BBB permeation (CNS+) Pe>4.7)	> 4.7	2.60 ± 0.20	–
CN(CCc1c[nH]c2ccccc12)Cc1ccc2cccc(O)c2n1 [Compound 4, 2-(((2-(1H-indol-3-yl)ethyl)(methyl)amino)methyl)quinolin-8-ol]	52.5 ± 6.47	–	CNS+ (Compounds of high BBB permeation (CNS+) Pe>4.7)	> 4.7	2.93 ± 0.15	Papp (in vitro): 9.87 ± 0.66 ×10⁻⁶ cm/s
O=C(NCCc1c[nH]c2ccccc12)c1ccc2cccc(O)c2n1 [Compound 6a, N-(2-(1H-indol-3-yl)ethyl)-8-hydroxyquinoline-2-carboxamide]	45.45 ± 0.41	7.71 ± 0.61	CNS+ (Compounds of high BBB permeation (CNS+) Pe>4.7)	> 4.7	2.49 ± 0.22	–
COc1ccc2[nH]cc(CCNC(=O)c3ccc4cccc(O)c4n3)c2c1 [Compound 6b, 8-hydroxy-N-(2-(5-methoxy-1H-indol-3-yl)ethyl)quinoline-2-carboxamide]	63.2 ± 2.02	6.91 ± 0.92	CNS+ (Compounds of high BBB permeation (CNS+) Pe>4.7)	> 4.7	2.76 ± 0.01	Cytotoxicity (BV2): no significant cytotoxicity; Disaggregation of Cu^2+-induced Aβ1-42 aggregation [1]: significantly disaggregated; Inhibition of Cu^2+-induced Aβ1-42 aggregation [1]: distinct inhibitory effect; Cytotoxicity (SH-SY5Y [4]; 5 μM): no cytotoxicity; Cytotoxicity (SH-SY5Y [4]; 10 μM): slight toxicity; ROS production after pretreatment (SH-SY5Y [5]): reduced ROS production in a dose-dependent manner; Metal-chelating property [6]: possess metal-chelating properties; Inflection point, concentration ratio of Cu^2+ to compound [6]: 0.5
O=C(NCCc1c[nH]c2ccc(O)cc12)c1ccc2cccc(O)c2n1 [Compound 6c, 8-hydroxy-N-(2-(5-hydroxy-1H-indol-3-yl)ethyl)quinoline-2-carboxamide]	40.3 ± 2.09	2.96 ± 0.58	CNS± (Compounds of uncertain BBB permeation (CNS+/ -) 4.7>Pe>1.8)	–	3.23 ± 0.02	Cytotoxicity (BV2): no significant cytotoxicity; Cytotoxicity (SH-SY5Y [4]; 5 μM): no cytotoxicity; Cytotoxicity (SH-SY5Y [4]; 10 μM): slight toxicity; ROS production after pretreatment (SH-SY5Y [5]): reduced ROS production in a dose-dependent manner; Metal-chelating property [6]: possess metal-chelating properties; Inflection point, concentration ratio of Cu^2+ to compound [6]: 0.5
O=C(NCc1c[nH]c2ccccc12)c1ccc2cccc(O)c2n1 [Compound 6d, N-((1H-indol-3-yl)methyl)-8-hydroxyquinoline-2-carboxamide]	19.2 ± 5.85	6.81 ± 1.13	CNS+ (Compounds of high BBB permeation (CNS+) Pe>4.7)	> 4.7	2.32 ± 0.17	–
O=C(Cc1c[nH]c2ccccc12)NCc1ccc(O)c2ncccc12 [Compound 11a, N-((8-hydroxyquinolin-5-yl)methyl)-2-(1H-indol-3-yl)acetamide]	44.7 ± 5.18	2.82 ± 0.42	CNS± (Compounds of uncertain BBB permeation (CNS+/ -) 4.7>Pe>1.8)	–	2.91 ± 0.16	–
COc1ccc2[nH]cc(CC(=O)NCc3ccc(O)c4ncccc34)c2c1 [Compound 11b, N-((8-hydroxyquinolin-5-yl)methyl)-2-(5-methoxy-1H-indol-3-yl)acetamide]	34.9 ± 2.91	1.35 ± 0.25	CNS− (Compounds of low BBB permeation (CNS -) Pe<1.8)	–	3.58 ± 0.12	–
O=C(NCCc1c[nH]c2ccccc12)c1ccc2cccnc2c1O [Compound 13a, N-(2-(1H-indol-3-yl)ethyl)-8-hydroxyquinoline-7-carboxamide]	47 ± 6.25	3.98 ± 0.45	CNS± (Compounds of uncertain BBB permeation (CNS+/ -) 4.7>Pe>1.8)	–	1.06 ± 0.07	–
COc1ccc2[nH]cc(CCNC(=O)c3ccc4cccnc4c3O)c2c1 [Compound 13b, 8-hydroxy-N-(2-(5-methoxy-1H-indol-3-yl)ethyl)quinoline-7-carboxamide]	19.7 ± 2.06	1.12 ± 0.42	CNS− (Compounds of low BBB permeation (CNS -) Pe<1.8)	–	1.33 ± 0.02	–
O=C(NCc1c[nH]c2ccccc12)c1ccc2cccnc2c1O [Compound 13c, N-((1H-indol-3-yl)methyl) -8-hydroxyquinoline-7-carboxamide]	38.6 ± 5.12	2.65 ± 0.46	CNS± (Compounds of uncertain BBB permeation (CNS+/ -) 4.7>Pe>1.8)	–	0.94 ± 0.02	–
COc1cc(/C=C/C(=O)CC(=O)/C=C/c2ccc(O)c(OC)c2)ccc1O [Curcumin, reference compound]	52.9 ± 6.38	–	–	–	–	–
COc1ccc2[nH]cc(CCNC(C)=O)c2c1 [Melatonin]	39 ± 9.35	–	–	–	–	Disaggregation of Cu^2+-induced Aβ1-42 aggregation [1]: mild disaggregated effect; Inhibition of Cu^2+-induced Aβ1-42 aggregation [1]: weak inhibitory activity
CN1C(C(=O)Nc2ccccn2)=C(O)c2ccccc2S1(=O)=O [piroxicam]	–	–	–	–	–	Pe, Bibl [7]: 2.5 ×10⁻⁶ cm/s
CN(C)CCCN1c2ccccc2Sc2ccccc21 [promazine]	–	–	–	–	–	Pe, Bibl [7]: 8.8 ×10⁻⁶ cm/s
